Results published in PubChem BioAssay AID1845197 (Molecular Pharmacology Branch, DTP, NCI, 2023).

Tested on: 349418-098-R tumor spheroid viability
Assay: Anticancer human tumor 349418-098-R patient-derived lung adenocarcinoma cell line growth inhibition
Conditions: spheroids with HUVEC and MSC; for IC50: curve of first compound; for viability, T/C: stronger effect = lower value
From the text: Multicellular complex tumor spheroid response to DNA repair inhibitors in combination with DNA-damaging drugs
This study explores the anticancer activities of DNA-damaging drugs and inhibitors of DNA damage repair, both as single agents and in combinations. Complex tumor spheroids comprised of malignant cells, endothelial cells and mesenchymal stem cells served as an in vitro model for human solid tumors. This model system incorporates physiologically relevant features and patient-derived or established malignant cell lines with clinically relevant genetic alterations from many tumor types. Twenty-six patient-derived or established malignant cell lines were evaluated representing sarcoma, melanoma, small cell lung cancer (SCLC), non-small cell lung cancer (NSCLC), as well as bladder, ovarian and pancreatic cancers. The concentration ranges selected for each drug and investigational agent were based upon clinically achievable concentrations if the clinical Cmax of the agent was known.
Compounds. The drugs and compounds olaparib (NSC753686), talazoparib (NSC767125), berzosertib (NSC777718), elimusertib (NSC800525), nedisertib (NSC802822), VX-984 (NSC792969), AZD-1390 (NSC803789), temozolomide (NSC362856), topotecan (NSC609699), trabectedin (NSC813783), staurosporine (NSC755774), and gemcitabine (NSC613327) were obtained from the National Cancer Institute (NCI) Developmental Therapeutics Program Chemical Repository. The FDA-approved anticancer drug set is available from the Developmental Therapeutics Program at https://dtp.cancer.gov/organization/dscb/obtaining/available_plates.htm. […] The stock solutions were prepared in dimethyl sulfoxide (DMSO, Sigma-Aldrich, St. Louis, MO, cat. D2650) at 400-fold the tested concentration and stored at -70 degrees C. Prior to their use, the stock solutions were diluted in fresh medium and the final DMSO concentration in the assay was 0.25% (v/v). All drugs and investigational agents were tested over a range starting from a high concentration at or near the clinical Cmax and decreasing in half-log increments. If the clinical Cmax for an agent had not been determined, the highest concentration tested was 10 microM.
Cell Lines. The patient-derived cancer cell (PDC) lines: 156681-154-R-J1-PDC, 283228-195-R-J1-PDC, 287954-098-R-J1-PDC, 292921-168-R-J2-PDC, 349418-098-R-PDC, 425362-245-T-J1-PDC, 556581-035-R-J1-PDC, and BL0293-F563-PDC were received from the NCI Patient-Derived Models Repository (PDMR, https://pdmr.cancer.gov). The established cell lines HS-SY-2 (RRID:CVCL_8719), MPNST, and SYO-1 (RRID:CVCL_7146) were obtained from the Sloan Kettering Institute. The alveolar soft parts sarcoma cell line ASPS-1 (RRID:CVCL_S738) was established at the NCI and grown from internal seed stocks. The following established cell lines were purchased from the American Type Culture Collection (ATCC, Manassas, VA): G-401 (ATCC, cat. CRL-1441, RRID:CVCL_0270), SW982 (ATCC, cat. HTB-93, RRID:CVCL_1734), VA-ES-BJ (ATCC, cat. CRL-2138, RRID:CVCL_1785), NCI-H719 (ATCC, cat. CRL-5837, RRID:CVCL_1582), NCI-H196 (ATCC, cat. CRL-5823, RRID:CVCL_1509), NCI-H841 (ATCC, cat. CRL-5845, RRID:CVCL_1595), NCI-H1618 (ATCC, cat. CRL-5879, RRID:CVCL_1480), NCI-H1876 (ATCC, cat. CRL-5902, RRID:CVCL_1503), DMS 114 (ATCC, cat. CRL-2066; RRID:CVCL_1174), NCI-H211 (ATCC, cat. CRL-5824; RRID:CVCL_1529), and SW 1271 (ATCC, cat. CRL-2177, RRID:CVCL_1716). The small cell lung cancer cell line COR-L88 was purchased from Sigma-Aldrich (cat. 92031917-1VL, RRID:CVCL_1141). The non-small cell lung cancer cell lines NCI-H226 (RRID:CVCL_1544) and NCI-H322M (RRID:CVCL_1557) were established at the NCI and grown from internal seed stocks. Pooled donor human umbilical vein endothelial cells (HUVEC, Lonza, cat. CC-2519) and human mesenchymal stem cells (hMSC, Lonza, cat. PT-2501) were purchased from Lonza (Walkersville, MD).
Cell Culture. All cells were maintained in an incubator at 37 degrees C and 5% CO2 with 95% humidity. […]
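Further: spheroids exposed to compound for 7 days before measurement.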
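Wherever viability, T/C is given: percent of vehicle control viability with 100% = DMSO-treated spheroids.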

In the case of `CC(C)n1c(=O)n(C)c2cnc3cc(F)c(-c4ccc(OCCCN5CCCCC5)nc4)cc3c21` + COc1cc2c(cc1O)CCNC21CSC2c3c(OC(C)=O)c(C)c4c(c3C(COC1=O)N1C(O)C3Cc5cc(C)c(OC)c(O)c5C(C21)N3C)OCO4, the IC50 (second compound 30 pM) is reported as > 10 µM, the IC50 (second compound 94.9 pM) is reported as > 10 µM and the IC50 (second compound 0.0003 µM) is reported as < 0.0316 µM. The IC50 (second compound 0.000949 µM) was < 0.0316 µM, the IC50 (second compound 0.003 µM) was < 0.0316 µM and the viability, T/C (second compound 30 pM, first compound 0.0316 µM) was 91.8%. The viability, T/C (second compound 30 pM, first compound 0.1 µM) was 97.4%, the viability, T/C (second compound 30 pM, first compound 0.316 µM) was 106% and the viability, T/C (second compound 30 pM, first compound 1 µM) was 99.6%. It also gave a viability, T/C (second compound 30 pM, first compound 3.16 µM) of 98.4%, a viability, T/C (second compound 30 pM, first compound 10 µM) of 77.7% and a viability, T/C (second compound 94.9 pM, first compound 0.0316 µM) of 91.5%. The viability, T/C (second compound 94.9 pM, first compound 0.1 µM) was 85%, the viability, T/C (second compound 94.9 pM, first compound 0.316 µM) was 93% and the viability, T/C (second compound 94.9 pM, first compound 1 µM) was 92.7%. The viability, T/C (second compound 94.9 pM, first compound 3.16 µM) was 94.6%, the viability, T/C (second compound 94.9 pM, first compound 10 µM) was 60.2% and the viability, T/C (second compound 0.0003 µM, first compound 0.0316 µM) was 40.2%. For the same compound, the viability, T/C (second compound 0.0003 µM, first compound 0.1 µM) was 37%, the viability, T/C (second compound 0.0003 µM, first compound 0.316 µM) was 31.7% and the viability, T/C (second compound 0.0003 µM, first compound 1 µM) was 32.1%. The viability, T/C (second compound 0.0003 µM, first compound 3.16 µM) was 45.2%, the viability, T/C (second compound 0.0003 µM, first compound 10 µM) was 22.1% and the viability, T/C (second compound 0.000949 µM, first compound 0.0316 µM) was 0.4%. The viability, T/C (second compound 0.000949 µM, first compound 0.1 µM) was 0.3%, the viability, T/C (second compound 0.000949 µM, first compound 0.316 µM) was 0.49% and the viability, T/C (second compound 0.000949 µM, first compound 1 µM) was 1.21%. For the same compound, the viability, T/C (second compound 0.000949 µM, first compound 3.16 µM) was 1.2%, the viability, T/C (second compound 0.000949 µM, first compound 10 µM) was 0.62% and the viability, T/C (second compound 0.003 µM, first compound 0.0316 µM) was 1.38%. The viability, T/C (second compound 0.003 µM, first compound 0.1 µM) was 1.4%, the viability, T/C (second compound 0.003 µM, first compound 0.316 µM) was 1.38% and the viability, T/C (second compound 0.003 µM, first compound 1 µM) was 1.37%. For the same compound, the viability, T/C (second compound 0.003 µM, first compound 3.16 µM) was 1.41% and the viability, T/C (second compound 0.003 µM, first compound 10 µM) was 1.51%.

For `Cc1cc(C)c(CNC(=O)c2cc(-c3ccc(CN4CCOCC4)cc3)cc3c2cnn3C2CCCC2)c(=O)[nH]1` + Cn1nnc2c(C(N)=O)ncn2c1=O, the IC50 (second compound 1 µM) was 6.56 µM, the IC50 (second compound 3.16 µM) was 7.44 µM and the IC50 (second compound 10 µM) was 7.58 µM. The IC50 (second compound 31.6 µM) was 6.24 µM, the IC50 (second compound 100 µM) was 6.24 µM and the viability, T/C (second compound 1 µM, first compound 0.0316 µM) was 98%. It also gave a viability, T/C (second compound 1 µM, first compound 0.1 µM) of 97.6%, a viability, T/C (second compound 1 µM, first compound 0.316 µM) of 103% and a viability, T/C (second compound 1 µM, first compound 1 µM) of 97.1%. It also gave a viability, T/C (second compound 1 µM, first compound 3.16 µM) of 91.6%, a viability, T/C (second compound 1 µM, first compound 10 µM) of 25.8% and a viability, T/C (second compound 3.16 µM, first compound 0.0316 µM) of 104%. For the same compound, the viability, T/C (second compound 3.16 µM, first compound 0.1 µM) was 102%, the viability, T/C (second compound 3.16 µM, first compound 0.316 µM) was 103% and the viability, T/C (second compound 3.16 µM, first compound 1 µM) was 104%. It also gave a viability, T/C (second compound 3.16 µM, first compound 3.16 µM) of 92.6%, a viability, T/C (second compound 3.16 µM, first compound 10 µM) of 35.2% and a viability, T/C (second compound 10 µM, first compound 0.0316 µM) of 97.4%. It also gave a viability, T/C (second compound 10 µM, first compound 0.1 µM) of 106%, a viability, T/C (second compound 10 µM, first compound 0.316 µM) of 98.7% and a viability, T/C (second compound 10 µM, first compound 1 µM) of 102%. The viability, T/C (second compound 10 µM, first compound 3.16 µM) was 94.3%, the viability, T/C (second compound 10 µM, first compound 10 µM) was 35.8% and the viability, T/C (second compound 31.6 µM, first compound 0.0316 µM) was 99.2%. For the same compound, the viability, T/C (second compound 31.6 µM, first compound 0.1 µM) was 104%, the viability, T/C (second compound 31.6 µM, first compound 0.316 µM) was 99.2% and the viability, T/C (second compound 31.6 µM, first compound 1 µM) was 105%. It also gave a viability, T/C (second compound 31.6 µM, first compound 3.16 µM) of 91.6%, a viability, T/C (second compound 31.6 µM, first compound 10 µM) of 20.5% and a viability, T/C (second compound 100 µM, first compound 0.0316 µM) of 104%. It also gave a viability, T/C (second compound 100 µM, first compound 0.1 µM) of 105%, a viability, T/C (second compound 100 µM, first compound 0.316 µM) of 103% and a viability, T/C (second compound 100 µM, first compound 1 µM) of 97.2%. For the same compound, the viability, T/C (second compound 100 µM, first compound 3.16 µM) was 91.6% and the viability, T/C (second compound 100 µM, first compound 10 µM) was 21.5%.
